ChEMBL document CHEMBL4428137, “Development of a Potent and Selective HDAC8 Inhibitor” (ACS Med Chem Lett, 2016)
The source made the active and inactive calls. The calls are words filed in the database; no cut-off is given here.

Key:
[1] = target: T1, Histone deacetylase 7 (Homo sapiens) (UniProt Q8WUI4); experiment: (§1) Inhibition of HDAC7 (unknown origin)
T1 sequence (whole entry): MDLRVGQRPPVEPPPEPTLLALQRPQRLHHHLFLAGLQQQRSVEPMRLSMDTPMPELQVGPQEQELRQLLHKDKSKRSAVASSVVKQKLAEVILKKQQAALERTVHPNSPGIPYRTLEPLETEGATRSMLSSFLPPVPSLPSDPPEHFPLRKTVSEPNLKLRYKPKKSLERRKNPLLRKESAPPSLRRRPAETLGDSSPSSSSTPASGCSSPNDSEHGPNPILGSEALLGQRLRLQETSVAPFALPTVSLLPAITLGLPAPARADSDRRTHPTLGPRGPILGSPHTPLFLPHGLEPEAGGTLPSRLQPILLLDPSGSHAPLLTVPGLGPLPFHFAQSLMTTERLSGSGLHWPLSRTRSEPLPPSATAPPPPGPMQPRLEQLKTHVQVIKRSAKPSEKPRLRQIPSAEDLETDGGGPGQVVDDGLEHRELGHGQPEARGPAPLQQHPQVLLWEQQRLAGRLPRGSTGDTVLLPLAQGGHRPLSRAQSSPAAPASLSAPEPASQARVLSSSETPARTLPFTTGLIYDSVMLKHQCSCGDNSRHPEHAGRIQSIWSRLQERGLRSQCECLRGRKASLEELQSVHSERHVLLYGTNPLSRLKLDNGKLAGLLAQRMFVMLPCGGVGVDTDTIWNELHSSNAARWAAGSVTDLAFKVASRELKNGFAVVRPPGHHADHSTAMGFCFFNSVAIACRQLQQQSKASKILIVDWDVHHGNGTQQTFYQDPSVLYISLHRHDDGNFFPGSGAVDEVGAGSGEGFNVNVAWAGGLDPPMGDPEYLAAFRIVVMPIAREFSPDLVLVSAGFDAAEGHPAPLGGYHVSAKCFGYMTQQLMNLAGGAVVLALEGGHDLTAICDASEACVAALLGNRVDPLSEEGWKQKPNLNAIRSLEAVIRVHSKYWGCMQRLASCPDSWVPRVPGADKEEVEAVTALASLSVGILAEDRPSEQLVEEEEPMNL

Histone deacetylase 5 = Histone deacetylase 5 (Homo sapiens, UniProt Q9UQL6); experiment: Inhibition of HDAC5 (unknown origin)
Sequence of Histone deacetylase 5 (Q9UQL6 whole entry): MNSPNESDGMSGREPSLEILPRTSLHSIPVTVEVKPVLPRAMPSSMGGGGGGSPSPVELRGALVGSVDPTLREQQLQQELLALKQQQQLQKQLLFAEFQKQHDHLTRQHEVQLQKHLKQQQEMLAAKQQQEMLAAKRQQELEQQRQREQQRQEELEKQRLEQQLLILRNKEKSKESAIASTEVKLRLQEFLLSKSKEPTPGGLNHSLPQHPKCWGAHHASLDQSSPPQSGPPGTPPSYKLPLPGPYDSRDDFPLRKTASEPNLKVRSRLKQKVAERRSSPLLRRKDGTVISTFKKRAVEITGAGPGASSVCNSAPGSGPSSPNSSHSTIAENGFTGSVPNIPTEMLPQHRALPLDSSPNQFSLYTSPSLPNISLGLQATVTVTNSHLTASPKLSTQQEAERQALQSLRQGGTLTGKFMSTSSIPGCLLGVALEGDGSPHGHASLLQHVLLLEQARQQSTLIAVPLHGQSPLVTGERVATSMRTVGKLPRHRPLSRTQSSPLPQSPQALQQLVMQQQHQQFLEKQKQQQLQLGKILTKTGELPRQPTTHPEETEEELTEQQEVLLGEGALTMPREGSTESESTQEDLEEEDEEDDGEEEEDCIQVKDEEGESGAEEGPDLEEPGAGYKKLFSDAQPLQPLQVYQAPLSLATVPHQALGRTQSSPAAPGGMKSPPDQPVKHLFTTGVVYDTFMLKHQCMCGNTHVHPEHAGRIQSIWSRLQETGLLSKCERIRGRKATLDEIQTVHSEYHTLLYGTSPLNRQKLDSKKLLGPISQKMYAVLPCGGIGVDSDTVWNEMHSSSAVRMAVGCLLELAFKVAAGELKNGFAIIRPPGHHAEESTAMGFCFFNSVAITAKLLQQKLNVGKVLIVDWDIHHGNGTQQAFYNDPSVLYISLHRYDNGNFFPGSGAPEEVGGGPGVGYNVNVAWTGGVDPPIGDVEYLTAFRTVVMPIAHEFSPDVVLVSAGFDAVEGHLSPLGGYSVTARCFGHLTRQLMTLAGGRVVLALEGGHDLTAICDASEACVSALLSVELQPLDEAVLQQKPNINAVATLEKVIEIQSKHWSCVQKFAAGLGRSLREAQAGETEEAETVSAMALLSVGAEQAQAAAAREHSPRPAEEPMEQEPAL

Histone deacetylase 2 = Histone deacetylase 2 (Homo sapiens, UniProt Q92769); experiment: Inhibition of recombinant full length human HDAC2 expressed in sf9 cells using fluorophore-conjugated substrate by fluorescence assay
Sequence of Histone deacetylase 2 (Q92769 whole entry): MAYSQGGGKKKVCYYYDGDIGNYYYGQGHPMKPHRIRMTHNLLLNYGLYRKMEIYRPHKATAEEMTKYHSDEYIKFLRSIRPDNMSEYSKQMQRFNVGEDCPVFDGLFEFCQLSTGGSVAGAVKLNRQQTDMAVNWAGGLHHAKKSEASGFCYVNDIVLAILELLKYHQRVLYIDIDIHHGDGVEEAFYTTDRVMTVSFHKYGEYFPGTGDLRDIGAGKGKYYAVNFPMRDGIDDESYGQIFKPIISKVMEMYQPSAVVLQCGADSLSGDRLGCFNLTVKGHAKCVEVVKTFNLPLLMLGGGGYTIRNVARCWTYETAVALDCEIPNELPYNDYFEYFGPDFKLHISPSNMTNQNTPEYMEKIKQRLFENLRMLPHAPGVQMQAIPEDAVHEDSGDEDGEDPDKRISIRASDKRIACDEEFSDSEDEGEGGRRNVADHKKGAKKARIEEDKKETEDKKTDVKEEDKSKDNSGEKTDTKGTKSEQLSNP

Histone deacetylase 1 = Histone deacetylase 1 (Homo sapiens, UniProt Q13547); experiment: Inhibition of recombinant full length human C-terminal FLAG/His-tagged HDAC1 expressed in baculovirus expression system using fluorophore-conjugated substrate by fluorescence assay
Sequence of Histone deacetylase 1 (Q13547 whole entry): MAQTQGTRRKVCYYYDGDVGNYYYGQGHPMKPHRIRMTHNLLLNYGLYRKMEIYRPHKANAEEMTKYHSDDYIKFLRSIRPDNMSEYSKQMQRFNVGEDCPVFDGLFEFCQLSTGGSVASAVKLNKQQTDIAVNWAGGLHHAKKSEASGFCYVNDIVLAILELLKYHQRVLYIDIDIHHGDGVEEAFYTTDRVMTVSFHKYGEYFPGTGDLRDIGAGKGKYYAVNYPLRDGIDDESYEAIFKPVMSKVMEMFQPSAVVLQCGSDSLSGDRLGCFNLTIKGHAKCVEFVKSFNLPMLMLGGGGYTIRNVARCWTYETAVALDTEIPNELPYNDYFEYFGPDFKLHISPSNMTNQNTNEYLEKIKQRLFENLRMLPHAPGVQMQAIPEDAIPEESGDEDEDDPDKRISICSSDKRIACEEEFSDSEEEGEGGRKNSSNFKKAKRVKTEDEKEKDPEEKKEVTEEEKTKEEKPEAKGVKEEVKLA

[2] = target: T2, Protein deacetylase HDAC6 (Homo sapiens) (UniProt Q9UBN7); experiment: (§2) Inhibition of recombinant full length human HDAC6 expressed in sf9 cells using fluorophore-conjugated substrate by fluorescence assay
T2 sequence (whole entry): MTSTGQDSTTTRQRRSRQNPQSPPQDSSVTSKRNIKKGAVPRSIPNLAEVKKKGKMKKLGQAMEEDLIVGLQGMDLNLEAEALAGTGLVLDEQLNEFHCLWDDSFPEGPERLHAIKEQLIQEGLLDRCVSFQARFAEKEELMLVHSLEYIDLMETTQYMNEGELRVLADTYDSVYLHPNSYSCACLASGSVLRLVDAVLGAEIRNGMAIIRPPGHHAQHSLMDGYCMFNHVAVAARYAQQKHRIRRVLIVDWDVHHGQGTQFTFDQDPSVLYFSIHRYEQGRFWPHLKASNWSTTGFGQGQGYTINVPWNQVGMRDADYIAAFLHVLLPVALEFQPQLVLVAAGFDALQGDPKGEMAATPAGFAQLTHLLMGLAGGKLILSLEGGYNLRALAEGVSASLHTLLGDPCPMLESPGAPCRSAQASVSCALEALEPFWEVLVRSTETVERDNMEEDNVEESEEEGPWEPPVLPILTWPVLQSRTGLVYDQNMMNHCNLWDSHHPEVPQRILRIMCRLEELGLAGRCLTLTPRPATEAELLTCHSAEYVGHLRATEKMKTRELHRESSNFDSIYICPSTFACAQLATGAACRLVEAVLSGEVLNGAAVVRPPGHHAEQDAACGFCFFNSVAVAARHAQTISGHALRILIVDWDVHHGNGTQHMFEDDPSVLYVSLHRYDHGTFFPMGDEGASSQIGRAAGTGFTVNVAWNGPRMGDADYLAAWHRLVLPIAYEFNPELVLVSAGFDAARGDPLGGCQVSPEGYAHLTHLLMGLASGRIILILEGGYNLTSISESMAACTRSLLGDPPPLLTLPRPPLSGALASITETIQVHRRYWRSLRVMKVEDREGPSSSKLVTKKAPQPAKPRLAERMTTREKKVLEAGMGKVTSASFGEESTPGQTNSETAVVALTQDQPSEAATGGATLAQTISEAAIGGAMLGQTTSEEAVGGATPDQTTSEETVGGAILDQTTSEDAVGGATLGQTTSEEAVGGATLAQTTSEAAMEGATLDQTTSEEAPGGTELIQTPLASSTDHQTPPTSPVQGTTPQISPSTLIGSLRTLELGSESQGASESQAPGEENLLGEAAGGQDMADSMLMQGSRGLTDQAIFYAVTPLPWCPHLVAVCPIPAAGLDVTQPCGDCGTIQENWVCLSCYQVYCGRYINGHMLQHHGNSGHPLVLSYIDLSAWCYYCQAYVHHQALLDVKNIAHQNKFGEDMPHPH

Histone deacetylase 4 = Histone deacetylase 4 (Homo sapiens, UniProt P56524); experiment: Inhibition of HDAC4 (unknown origin)
Sequence of Histone deacetylase 4 (P56524 whole entry): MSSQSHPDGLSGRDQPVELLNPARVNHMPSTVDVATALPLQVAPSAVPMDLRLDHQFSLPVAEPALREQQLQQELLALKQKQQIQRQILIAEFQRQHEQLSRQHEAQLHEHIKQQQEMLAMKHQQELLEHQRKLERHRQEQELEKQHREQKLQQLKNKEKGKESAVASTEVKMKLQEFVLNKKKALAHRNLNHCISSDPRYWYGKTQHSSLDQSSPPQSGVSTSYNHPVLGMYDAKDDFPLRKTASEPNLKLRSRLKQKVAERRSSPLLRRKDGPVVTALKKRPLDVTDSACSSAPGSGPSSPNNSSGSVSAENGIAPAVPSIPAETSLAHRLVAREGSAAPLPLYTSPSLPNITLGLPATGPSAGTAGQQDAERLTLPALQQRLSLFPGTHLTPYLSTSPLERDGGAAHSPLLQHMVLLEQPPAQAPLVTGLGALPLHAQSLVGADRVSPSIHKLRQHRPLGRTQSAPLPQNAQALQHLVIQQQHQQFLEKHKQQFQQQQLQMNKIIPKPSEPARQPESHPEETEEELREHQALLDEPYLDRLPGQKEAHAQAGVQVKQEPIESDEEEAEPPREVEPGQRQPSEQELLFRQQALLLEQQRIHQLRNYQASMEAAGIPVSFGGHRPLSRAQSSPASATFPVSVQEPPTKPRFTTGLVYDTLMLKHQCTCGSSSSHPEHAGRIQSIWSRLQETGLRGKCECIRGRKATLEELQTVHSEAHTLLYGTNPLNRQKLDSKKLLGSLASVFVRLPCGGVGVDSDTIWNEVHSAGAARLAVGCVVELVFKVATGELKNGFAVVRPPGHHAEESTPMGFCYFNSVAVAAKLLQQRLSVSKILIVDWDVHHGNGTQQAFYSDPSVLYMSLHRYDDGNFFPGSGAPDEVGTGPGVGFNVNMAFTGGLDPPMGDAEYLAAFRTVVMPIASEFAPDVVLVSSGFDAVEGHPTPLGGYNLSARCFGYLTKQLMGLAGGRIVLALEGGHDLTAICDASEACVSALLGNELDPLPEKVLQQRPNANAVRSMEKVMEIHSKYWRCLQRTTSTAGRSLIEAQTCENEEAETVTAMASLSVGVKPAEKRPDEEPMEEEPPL

Histone deacetylase 9 = Histone deacetylase 9 (Homo sapiens, UniProt Q9UKV0); experiment: Inhibition of HDAC9 (unknown origin)
Sequence of Histone deacetylase 9 (Q9UKV0 whole entry, the tested form may be a part): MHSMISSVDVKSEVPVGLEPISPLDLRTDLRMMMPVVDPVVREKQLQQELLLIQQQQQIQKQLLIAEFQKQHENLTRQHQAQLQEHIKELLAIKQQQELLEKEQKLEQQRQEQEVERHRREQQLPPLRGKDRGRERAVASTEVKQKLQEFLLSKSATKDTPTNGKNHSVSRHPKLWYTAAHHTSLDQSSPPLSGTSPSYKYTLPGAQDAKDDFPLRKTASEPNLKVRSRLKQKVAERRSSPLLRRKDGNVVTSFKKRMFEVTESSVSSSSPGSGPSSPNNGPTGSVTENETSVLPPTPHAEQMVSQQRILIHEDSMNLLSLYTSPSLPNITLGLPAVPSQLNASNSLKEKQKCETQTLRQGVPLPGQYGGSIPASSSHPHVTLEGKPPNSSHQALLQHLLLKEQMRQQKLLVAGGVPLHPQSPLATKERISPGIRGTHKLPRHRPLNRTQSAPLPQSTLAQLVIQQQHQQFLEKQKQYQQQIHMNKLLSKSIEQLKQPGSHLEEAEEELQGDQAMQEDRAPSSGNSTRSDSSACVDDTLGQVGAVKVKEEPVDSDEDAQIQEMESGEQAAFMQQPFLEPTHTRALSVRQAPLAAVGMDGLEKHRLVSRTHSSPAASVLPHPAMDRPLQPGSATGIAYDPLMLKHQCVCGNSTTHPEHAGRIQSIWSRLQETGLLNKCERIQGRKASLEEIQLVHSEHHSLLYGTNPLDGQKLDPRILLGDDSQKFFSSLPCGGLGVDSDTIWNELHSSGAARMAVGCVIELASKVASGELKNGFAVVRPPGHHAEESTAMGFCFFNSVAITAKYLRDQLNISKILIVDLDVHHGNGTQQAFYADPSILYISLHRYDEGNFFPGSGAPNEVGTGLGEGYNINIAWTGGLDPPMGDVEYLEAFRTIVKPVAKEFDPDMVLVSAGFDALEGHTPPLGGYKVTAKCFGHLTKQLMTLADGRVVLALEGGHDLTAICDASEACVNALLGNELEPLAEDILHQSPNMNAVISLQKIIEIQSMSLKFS

Histone deacetylase 3 = Histone deacetylase 3 (Homo sapiens, UniProt O15379); experiment: Inhibition of recombinant full length human C-terminal His-tagged HDAC3 expressed in sf9 cells co-expressing human N-terminal GST-tagged NCOR2 (395 to 489 residues) using fluorophore-conjugated substrate by fluorescence assay
Sequence of Histone deacetylase 3 (O15379 whole entry, the tested form may be a part): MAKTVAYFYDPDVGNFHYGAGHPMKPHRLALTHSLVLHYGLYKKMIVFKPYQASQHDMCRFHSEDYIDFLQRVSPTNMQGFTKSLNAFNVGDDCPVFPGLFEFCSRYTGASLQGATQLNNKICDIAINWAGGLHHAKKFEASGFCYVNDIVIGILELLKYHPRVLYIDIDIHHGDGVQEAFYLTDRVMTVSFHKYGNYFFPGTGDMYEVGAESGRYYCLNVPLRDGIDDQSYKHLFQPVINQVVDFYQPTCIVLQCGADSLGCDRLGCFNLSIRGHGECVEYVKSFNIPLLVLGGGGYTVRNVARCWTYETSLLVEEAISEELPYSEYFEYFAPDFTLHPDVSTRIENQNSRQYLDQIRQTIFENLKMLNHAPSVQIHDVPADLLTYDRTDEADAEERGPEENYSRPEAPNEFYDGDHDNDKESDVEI

[3] = target: T3, Histone deacetylase 8 (Homo sapiens) (UniProt Q9BY41); experiment: (§3) Inhibition of HDAC8 (unknown origin) using fluorophore-conjugated substrate by fluorescence assay
T3 sequence (whole entry): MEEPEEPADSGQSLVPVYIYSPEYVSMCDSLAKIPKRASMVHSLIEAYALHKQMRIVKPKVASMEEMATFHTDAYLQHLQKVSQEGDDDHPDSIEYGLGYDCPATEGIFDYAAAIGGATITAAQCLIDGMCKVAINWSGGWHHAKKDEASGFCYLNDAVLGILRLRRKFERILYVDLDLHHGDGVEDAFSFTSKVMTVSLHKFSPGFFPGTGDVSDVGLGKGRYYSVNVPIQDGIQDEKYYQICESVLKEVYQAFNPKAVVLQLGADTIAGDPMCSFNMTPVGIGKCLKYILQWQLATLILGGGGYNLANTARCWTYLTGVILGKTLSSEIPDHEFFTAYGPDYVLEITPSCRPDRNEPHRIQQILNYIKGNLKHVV

Histone deacetylase 7 = target: T4, Histone deacetylase 7 (Homo sapiens, UniProt Q8WUI4); experiment: as §1
T4 sequence (Q8WUI4 whole entry): T1 sequence (whole entry)

[4] = target: T5, Protein deacetylase HDAC6 (Homo sapiens, UniProt Q9UBN7); experiment: as §2
T5 sequence (Q9UBN7 whole entry): T2 sequence (whole entry)

Histone deacetylase 8 = target: T6, Histone deacetylase 8 (Homo sapiens, UniProt Q9BY41); experiment: as §3
T6 sequence (Q9BY41 whole entry): T3 sequence (whole entry)

SMILES: O=C(NO)[C@@H](Cc1ccccc1)n1nnc(-c2ccccc2)c1C#Cc1ccccc1
- inhibition [1]: inactive
- inhibition (Histone deacetylase 5): inactive
- inhibition (Histone deacetylase 2): inactive
- inhibition (Histone deacetylase 1): inactive
- inhibition [2]: inactive
- inhibition (Histone deacetylase 4): inactive
- inhibition (Histone deacetylase 9): inactive
- inhibition (Histone deacetylase 3): inactive
- inhibition [3]: inactive

SMILES: O=C(NO)[C@H](Cc1ccccc1)n1nnc(-c2ccccc2)c1C#CC1CC1
- IC50 (Histone deacetylase 7): > 20000 nM
- IC50 (Histone deacetylase 5): > 20000 nM
- IC50 (Histone deacetylase 2): > 20000 nM
- IC50 (Histone deacetylase 1): 4300 nM
- IC50 [4]: 1200 nM
- IC50 (Histone deacetylase 4): > 20000 nM
- IC50 (Histone deacetylase 9): > 20000 nM
- IC50 (Histone deacetylase 3): > 20000 nM
- IC50 (Histone deacetylase 8): 0.8 nM

SMILES: O=C(NO)[C@H](Cc1ccccc1)n1nnc(-c2ccccc2)c1CCC1CC1
- inhibition [3]: inactive

SMILES: CCc1ccc(C#Cc2c(-c3ccccc3)nnn2[C@@H](Cc2ccccc2)C(=O)NO)cc1
- IC50 (Histone deacetylase 8): 1500 nM

SMILES: CC(C)(C)c1ccc(-c2nnn([C@@H](Cc3ccccc3)C(=O)NO)c2C#CC2CC2)cc1
- IC50 (Histone deacetylase 8): 133 nM

SMILES: O=C(O)[C@H](Cc1ccccc1)n1nnc(-c2ccccc2)c1C#Cc1ccccc1
- inhibition [1]: inactive
- inhibition (Histone deacetylase 5): inactive
- inhibition (Histone deacetylase 2): inactive
- inhibition (Histone deacetylase 1): inactive
- inhibition [2]: inactive
- inhibition (Histone deacetylase 4): inactive
- inhibition (Histone deacetylase 9): inactive
- inhibition (Histone deacetylase 3): inactive
- inhibition [3]: inactive

SMILES: O=C(NO)[C@H](Cc1ccccc1)n1nnc(-c2cccc(Cl)c2)c1C#CC1CC1
- IC50 (Histone deacetylase 8): 8 nM

SMILES: O=C(NO)[C@H](Cc1ccccc1)n1nnc(-c2ccccc2)c1C#Cc1ccccc1
- IC50 (Histone deacetylase 7): > 20000 nM
- IC50 (Histone deacetylase 5): > 20000 nM
- IC50 (Histone deacetylase 2): > 20000 nM
- IC50 (Histone deacetylase 1): > 20000 nM
- IC50 [4]: 3600 nM
- IC50 (Histone deacetylase 4): > 20000 nM
- IC50 (Histone deacetylase 9): > 20000 nM
- IC50 (Histone deacetylase 3): > 20000 nM
- IC50 (Histone deacetylase 8): 10 nM

SMILES: CC(C)[C@@H](C(=O)NO)n1nnc(-c2ccccc2)c1C#Cc1ccccc1
- IC50 (Histone deacetylase 8): 2300 nM

SMILES: COC(=O)[C@H](Cc1ccccc1)n1nnc(-c2ccccc2)c1C#Cc1ccccc1
- inhibition [1]: inactive
- inhibition (Histone deacetylase 5): inactive
- inhibition (Histone deacetylase 2): inactive
- inhibition (Histone deacetylase 1): inactive
- inhibition [2]: inactive
- inhibition (Histone deacetylase 4): inactive
- inhibition (Histone deacetylase 9): inactive
- inhibition (Histone deacetylase 3): inactive
- inhibition [3]: inactive

SMILES: CCCCCc1c(-c2ccccc2)nnn1[C@@H](Cc1ccccc1)C(=O)NO
- IC50 (Histone deacetylase 8): 160 nM

SMILES: CNC(=O)[C@H](Cc1ccccc1)n1nnc(-c2ccccc2)c1C#Cc1ccccc1
- inhibition [1]: inactive
- inhibition (Histone deacetylase 5): inactive
- inhibition (Histone deacetylase 2): inactive
- inhibition (Histone deacetylase 1): inactive
- inhibition [2]: inactive
- inhibition (Histone deacetylase 4): inactive
- inhibition (Histone deacetylase 9): inactive
- inhibition (Histone deacetylase 3): inactive
- inhibition [3]: inactive

SMILES: O=C(NO)[C@H](Cc1ccccc1)n1nnc(-c2ccsc2)c1C#CC1CC1
- IC50 (Histone deacetylase 8): 4 nM

SMILES: O=C(NO)[C@H](Cc1ccccc1)n1cc(-c2ccccc2)nn1
- inhibition [1]: inactive
- inhibition (Histone deacetylase 5): inactive
- inhibition (Histone deacetylase 2): inactive
- inhibition (Histone deacetylase 1): inactive
- inhibition [2]: inactive
- inhibition (Histone deacetylase 4): inactive
- inhibition (Histone deacetylase 9): inactive
- inhibition (Histone deacetylase 3): inactive
- inhibition [3]: inactive

SMILES: O=C(NO)[C@H](Cc1ccccc1)n1nnc(-c2ccccc2)c1C#Cc1ccc(-c2ccccc2)cc1
- IC50 (Histone deacetylase 8): 9100 nM

SMILES: O=C(NO)[C@H](Cc1c[nH]c2ccccc12)n1nnc(-c2ccccc2)c1C#CC1CC1
- IC50 (Histone deacetylase 8): 7 nM

SMILES: CCC/C=C/c1c(-c2ccccc2)nnn1[C@@H](Cc1ccccc1)C(=O)NO
- IC50 (Histone deacetylase 8): 464 nM

SMILES: O=C(NO)[C@H](Cc1ccccc1)n1nnc(-c2ccccc2)c1/C=C/C1CC1
- inhibition [3]: inactive

SMILES: COc1cc(OC)cc(-c2nnn([C@@H](Cc3ccccc3)C(=O)NO)c2C#CC2CC2)c1
- IC50 (Histone deacetylase 8): 3 nM
